Assay [1] concerns the target T1, ceramide glucosyltransferase (HL60 glucosyltransferase) (Homo sapiens, UniProt Q16739).
T1 construct: gene UGCG; native enzyme isolated from human promyelocytic HL60 cells
T1 sequence (Q16739 1-394): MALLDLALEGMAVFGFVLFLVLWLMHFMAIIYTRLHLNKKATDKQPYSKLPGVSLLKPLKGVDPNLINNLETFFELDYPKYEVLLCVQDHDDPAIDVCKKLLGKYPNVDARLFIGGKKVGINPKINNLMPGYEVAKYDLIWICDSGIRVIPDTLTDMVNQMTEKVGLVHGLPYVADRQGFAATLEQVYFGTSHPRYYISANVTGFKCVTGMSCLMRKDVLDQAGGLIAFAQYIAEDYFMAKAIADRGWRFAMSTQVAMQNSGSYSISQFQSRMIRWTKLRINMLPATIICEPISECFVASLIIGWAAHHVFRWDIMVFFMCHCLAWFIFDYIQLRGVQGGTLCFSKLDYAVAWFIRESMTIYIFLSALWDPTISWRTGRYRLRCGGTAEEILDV
The assay can be described thus: enzyme inhibition assay, enzyme isolated from HL60 cells. To be noted: read-out: IC50 ^a / UV-4B. It counts as biochemical. The text has this: enzyme inhibition assay, enzyme isolated from HL60 cells on ceramide glucosyltransferase (HL60 glucosyltransferase)

For assay [2], the target named is T2, α-glucosidase I (human MDMΦs) (Homo sapiens, UniProt Q13724).
T2 construct: gene MOGS; endogenous enzyme in primary human monocyte-derived macrophages
T2 sequence (Q13724 1-837): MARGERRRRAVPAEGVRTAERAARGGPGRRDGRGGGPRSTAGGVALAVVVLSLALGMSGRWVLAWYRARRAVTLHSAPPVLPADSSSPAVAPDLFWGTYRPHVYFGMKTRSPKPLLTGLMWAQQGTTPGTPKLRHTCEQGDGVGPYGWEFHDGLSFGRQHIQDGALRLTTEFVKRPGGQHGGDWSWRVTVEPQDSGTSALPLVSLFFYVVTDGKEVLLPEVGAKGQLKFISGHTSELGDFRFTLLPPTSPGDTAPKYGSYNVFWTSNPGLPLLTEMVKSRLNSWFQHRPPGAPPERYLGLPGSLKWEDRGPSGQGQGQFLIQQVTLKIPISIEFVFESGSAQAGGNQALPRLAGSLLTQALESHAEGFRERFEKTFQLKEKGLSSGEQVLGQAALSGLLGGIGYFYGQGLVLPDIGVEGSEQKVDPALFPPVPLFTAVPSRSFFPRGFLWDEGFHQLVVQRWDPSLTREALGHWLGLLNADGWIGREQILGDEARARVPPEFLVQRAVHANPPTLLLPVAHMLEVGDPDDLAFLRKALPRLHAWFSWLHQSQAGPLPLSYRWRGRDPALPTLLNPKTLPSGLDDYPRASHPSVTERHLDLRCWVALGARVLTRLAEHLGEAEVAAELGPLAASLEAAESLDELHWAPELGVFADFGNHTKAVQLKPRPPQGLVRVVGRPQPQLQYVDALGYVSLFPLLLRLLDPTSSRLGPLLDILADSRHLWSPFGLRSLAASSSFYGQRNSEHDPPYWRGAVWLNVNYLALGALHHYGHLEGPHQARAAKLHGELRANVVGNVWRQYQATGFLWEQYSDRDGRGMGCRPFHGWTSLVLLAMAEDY
The assay can be described thus: free oligosaccharide (Glc3Man5GlcNAc1) accumulation in human MDMΦs. It counts as cell-based. To be noted: […] h treatment of uninfected cells.

The target in assay [3] is T3, Human lysosome (α-galactosidase) (Homo sapiens, UniProt P06280).
T3 construct: gene GLA
T3 sequence (P06280 32-429): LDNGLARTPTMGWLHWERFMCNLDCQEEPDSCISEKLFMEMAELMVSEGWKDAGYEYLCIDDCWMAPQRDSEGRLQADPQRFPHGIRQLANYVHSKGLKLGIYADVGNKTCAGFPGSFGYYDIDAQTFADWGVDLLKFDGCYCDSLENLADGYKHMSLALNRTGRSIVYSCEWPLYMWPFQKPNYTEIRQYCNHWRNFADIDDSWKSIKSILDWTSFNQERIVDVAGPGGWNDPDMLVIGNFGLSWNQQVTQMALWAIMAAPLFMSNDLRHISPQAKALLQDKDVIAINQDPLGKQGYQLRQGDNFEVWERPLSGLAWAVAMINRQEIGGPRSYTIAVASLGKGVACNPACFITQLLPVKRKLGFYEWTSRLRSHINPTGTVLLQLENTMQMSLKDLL
Put plainly: enzyme inhibition assay. It counts as biochemical. The following applies: read-out: IC50 ^a / UV-4B. The text has this:
enzyme inhibition assay on Human lysosome (α-galactosidase)

For assay [4], the target named is T4, Human lysosome (α-glucosidase) (Homo sapiens, UniProt P10253).
T4 construct: gene GAA
The assay can be described thus: enzyme inhibition assay. To be noted: read-out: IC50 ^a / UV-4B. Format: biochemical. The source says:
enzyme inhibition assay on Human lysosome (α-glucosidase)

Structures can show the parent of a compound that is named as a salt. A value given as a limit tells only on which side of the number the result lay.

Regarding `COCCCCCCCCCN1C[C@H](O)[C@@H](O)[C@H](O)[C@H]1CO` [UV-4B, N-(9′-methoxynonyl)-1-deoxynojirimycin hydrochloride], the IC50 is 0.39 µM in assay [1], more than 1000 µM in assay [3] and 0.39 µM in assay [4]. Also, the “free oligosaccharide (Glc3Man5GlcNAc1) accumulation in human MDMΦs” value in assay [2] is listed as “UV-4B led to accumulation of FOS representative of inhibition of both α-glucosidases”.

For the origin of these results see paper PMC5064435, “Inhibition of endoplasmic reticulum glucosidases is required for in vitro and in vivo dengue antiviral activity by the iminosugar UV-4” (Antiviral Research, 2016).
